Read-outs that look alike come from different tables or passages of the source.
Key:
[1] = molecular target: T1, purified recombinant HIV RT (Human immunodeficiency virus type 1 group M subtype B, UniProt P04585); assay: Purified recombinant HIV RT inhibition, cell-free Quan-T-RT scintillation proximity assay; format: biochemical
T1 construct: against purified recombinant HIV RT using the cell-free Quan-T-RT system
Experimental: In the assay, a DNA/RNA template is bound to SPA beads via a biotin/strepavidin linkage. The primer DNA is a 16-mer oligo(T) which has been annealed to a poly(A) template. The primer/template is bound to a strepavidin-coated SPA bead.
^3H-TTP is incorporated into the primer by reverse transcription. […] The compound being tested was added to the reaction mixture at 0.001 μM-100 μM concentrations. […] The reaction was stopped by addition of 0.2 ml of 120 mM EDTA. The samples were counted in an open window using a Beckman LS 7600 instrument and IC50 values were calculated by comparing the measurements to untreated samples.

[2] = system: multidrug resistant HIV-1 strain RT-MDR with a V106A mutation; assay: microbe, parasite or virus in culture; format: cell-based
Experimental: (§1) Normal human peripheral blood mononuclear cells (PBMNC) from HIV-negative donors were cultured 72 hours in RPMI 1640 supplemented with 20% (v/v) heat-inactivated fetal bovine serum (FBS), 3% interleukin-2,2 mM L-glutairine, 25 mM HEPES, 2 μL, NAHCO, […] gentamicin, and 4 μg/mL phytohemagglutinin prior to exposure to HIV-1 or other HIV strain at a multiplicity of infection (MOI) of 0.1 during a one-hour adsorption period at 37° C. in a humidified 5% CO2 atmosphere. Subsequently, cells were cultured in 96-well microplates (100 μL/well; 2×10^6 cells/mL, triplicate wells) in the presence of various inhibitor concentrations. Aliquots of culture supernatants were removed from the wells on the 7th day after infection for p24 antigen p24 enzyme immunoassays (EIA), as previously described in Erice et al., 1993, Antimicrob. Ag. Chemotherapy 37:385-838. The applied p24 EIA was the unmodified kinetic assay commercially available from Coulter Corporation/Immunotech, Inc. (Westbrook, Me.).
(§2) Percent inhibition of viral replication was calculated by comparing the p24 values from the test substance-treated infected cells with p24 values from untreated infected cells (i.e, virus controls).

[3] = system: NNI-resistant HIV-1 strain A17 with a Y181C mutation; assay: microbe, parasite or virus in culture; format: cell-based; conditions: for IC50: read-out: IC50 A17 (Y181C)
Experimental: as §1, §2

HIV-1 strain HTLVIIIB = assay: Inhibition of HIV-1 HTLVIIIB replication in PBMC (p24 antigen EIA); format: cell-based
Experimental: The HIV strain HTLVIIIB was kindly provided by Dr. Neal T.Wetherall, VIROMED Laboratories, Inc., and was propagated in CCRF-CEM cells.
Subsequently, cells were cultured in 96-well microplates (100 μL/well; 2×10^6 cells/mL, triplicate wells) in the presence of various inhibitor concentrations. […] Ag. […] The applied p24 EIA was the unmodified kinetic assay commercially available from Coulter Corporation/Immunotech, Inc. (Westbrook, Me.).
as §2

PBMC = assay: Microculture tetrazolium Assay (MTA, XTT) for cytotoxicity; format: cell-based, human
[4] = as above; format: cell-based, human; conditions: human, PBMC; Table 1; cytotoxicity, MTA
[5] = Table 1, recombinant HIV RT, read-out: IC50 rRT
[6] = Table 2, recombinant HIV reverse transcriptase, read-out: IC50 rRT
[7] = Human immunodeficiency virus 1, PBMC, read-out: IC50 RT-MDR
[8] = Human immunodeficiency virus 1, PBMC
[9] = Human immunodeficiency virus 1, PBMC, read-out: IC50 HTLV mB
[10] = Human immunodeficiency virus 1, Table 1, p24 production in PBMC, read-out: IC50 HTLV mB
[11] = read-out: IC50 rRT, Table 2, recombinant HIV reverse transcriptase
[12] = Human immunodeficiency virus 1, PBMC, Table 2, wild-type HIV-1, read-out: IC50 p24

O=[N+]([O-])c1ccc(CCNC(=S)Nc2ccc(Br)cn2)cc1 [HI-231]
IC50 [1, 5]: > 100 µM | IC50 [1, 6]: > 100 µM

Cc1ccc(CCNC(=S)Nc2ccc(Br)cn2)cc1 [HI-244, N-[2-(4-methylphenethyl)]-N′-[2-(5-bromopyridyl)]thiourea]
melting point: 159 to 162 °C | IC50 [2, 7]: > 0.001 µM | times more effective than trovirdine ([2]; RT-MDR strain, V106A plus 74V, 41L, 215Y): 20 times | resistance of mutant strain to compound ([2]; V106A mutant strain (RT-MDR)): no resistance | selectivity index ([2]; against multidrug-resistant V106A mutant strain RT-MDR): > 71,000 | times more potent than trovirdine ([3]; A17 strain, Y181C): 7 times | IC50 [3, 8]: 0.07 µM | higher potency relative to trovirdine ([3]; NNI-resistant A17 strain (Y181C mutation)): 7 fold | resistance of mutant strain to compound ([3]; Y181C mutant strain (A17 strain)): 10 fold | selectivity index ([3]; against NNI-resistant Y181C mutant strain A17): > 1,000 | IC50 (HIV-1 strain HTLVIIIB; [9]): 0.007 µM | IC50 (HIV-1 strain HTLVIIIB; Human immunodeficiency virus 1, PBMC, read-out: IC50 for inhibition of replication of HIV-1 strain HTLVIIIB in PBMC): 0.007 µM | IC50 (HIV-1 strain HTLVIIIB; Human immunodeficiency virus 1, PBMC, read-out: IC50 p24): 0.007 µM | selectivity index (HIV-1 strain HTLVIIIB; against wild-type HIV-1 strain HTLVIIIB): > 10,000 | IC50 [1]: 0.1 µM | cytotoxicity to PBMC (PBMC; at a concentration): not cytotoxic | CC50 [4]: 71 µM

S=C(NCCc1ccc(Cl)cc1)Nc1ccc(Br)cn1 [HI-255, N-[2-(4-chlorophenethyl)]-N′-[2-(5-bromopyridyl)]thiourea]
melting point: 180 to 183 °C | IC50 (HIV-1 strain HTLVIIIB; [10]): 20.8 µM | IC50 [1]: 2.5 µM | IC50 [1, 11]: 2.5 µM

Fc1ccc(CCNC(=S)Nc2ccc(Br)cn2)cc1 [HI-242, N-[2-(4-fluorophenethyl)]-N′-[2-(5-bromopyridyl)]thiourea]
IC50 [1, 5]: 6.4 µM | IC50 [1, 6]: 6.4 µM

COc1ccc(CCNC(=S)Nc2ccc(Br)cn2)cc1 [HI-238, N-[2-(4-methoxyphenethyl)]-N′-[2-(5-bromopyridyl)]thiourea]
melting point: 178 to 179 °C | IC50 (HIV-1 strain HTLVIIIB; [12]): 0.015 µM | IC50 (HIV-1 strain HTLVIIIB; [10]): 0.015 µM | IC50 [1]: 0.9 µM | IC50 [1, 11]: 0.9 µM | CC50 [4]: > 100 µM

S=C(NCCc1ccccc1)Nc1ccc(Br)cn1 [HI-275, N-[2-(5-Bromopyridinyl)]-N′-[2-(Phenethyl)] thiourea]
IC50 [1, 5]: 1.3 µM

S=C(NCCc1ccccn1)Nc1ccc(Br)cn1 [Trovirdine, reference compound]
times less potent than HI-244 ([2]; RT-MDR strain): 20 times | IC50 ([2]; Table 1, p24 production in PBMC, read-out: IC50 RT-MDR (Y106A)): 0.02 µM | IC50 ([3]; Table 1, p24 production in PBMC): 0.5 µM | IC50 (HIV-1 strain HTLVIIIB; Table 1, p24 production in PBMC, read-out: IC50 HTLV mB): 0.007 µM | IC50 (HIV-1 strain HTLVIIIB; Table 2, wild-type HIV-1, read-out: IC50 p24): 0.007 µM | CC50 (PBMC; Table 1, cytotoxicity, MTA): > 100 µM

Oc1ccc(CCNC(=S)Nc2ccc(Br)cn2)cc1 [HI-256, N-[2-(4-hydroxyphenethyl)]-N′-[2-(5-bromopyridyl)]thiourea]
IC50 (HIV-1 strain HTLVIIIB; [9]): 3.07 µM | IC50 [1]: 87.7 µM | CC50 [4]: > 100 µM

S=C(NCCc1ccc(Br)cc1)Nc1ccc(Br)cn1 [HI-243, N-[2-(4-bromophenethyl)]-N′-[2-(5-bromopyridyl)]thiourea]
melting point: 184 to 185 °C | IC50 [2, 7]: > 0.001 µM | IC50 [3, 8]: 1 µM | IC50 (HIV-1 strain HTLVIIIB; [12]): 0.07 µM | IC50 (HIV-1 strain HTLVIIIB; [10]): 0.07 µM | IC50 [1]: 0.9 µM | CC50 [4]: > 100 µM

Source: patent publication US6586450B2, “Phenethyl-thiourea compounds and use” (Parker Hughes Institute, priority 1999, dated 2003)
